Reference: US9051310B2, “Nicotinamide derivative or salt thereof” (FUJIFILM Corporation, priority 2011, dated 2015)

molecular target: T1, glutathione S-transferase (GST)-linked full-length human Syk protein (Homo sapiens, UniProt P43405); test: Syk enzyme assay; type: biochemical; details: 0.83 nM Syk, time-resolved fluorescence; read-out: IC50 of Syk-inhibitory activity
T1 construct: glutathione S-transferase (GST)-linked full-length human Syk protein; purchased Carna Biosciences; host or cells: Baculovirus expression system
Procedure: A glutathione S-transferase (GST)-linked full-length human Syk protein (Carna Biosciences), which had been generated using a Baculovirus expression system, was used in the Syk enzyme assay.
7.5 μl of a reaction solution (0.83 nM Syk, 20 mM HEPES, 10 mM MgCl2, 50 mM NaCl, 2 mM DTT, 0.05% BSA, pH 7.0) containing a Syk protein and a predetermined concentration of a test compound was shaken for 2 minutes, and it was then left at rest at room temperature for 13 minutes. Thereafter, 0.5 μM substrate peptide (Biotin-[…]-NH2) and 5 μL of a solution containing 67.5 μM ATP were added to the reaction solution, and the obtained mixture was then shaken for 2 minutes. The reaction solution was further left at rest at room temperature for 40 minutes, so as to carry out an enzyme reaction.
Thereafter, 50 μL of a reaction termination solution [60 nM APC-SA, 0.45 μg/mL Eu-PT66, 30 mM HEPES (pH 7.0), 150 mM KF, 30 mM EDTA, 0.15% BSA, 0.075% Tween20] containing Allophycocyanin-Streptavidin (APC-SA; PerkinElmer) and an Eu-W1024-labeled anti-phosphotyrosine PT66 antibody (Eu-PT66; PerkinElmer) was added to the reaction solution to terminate the enzyme reaction. At the same time, the reaction solution was left at rest at room temperature for 1 hour, so as to carry out an antigen-antibody reaction. Thereafter, using EnVision (PerkinElmer), the level of time-resolved fluorescence was measured at 615 nm and 665 nm, so that the phosphorylation of the substrate peptide was measured.
The following are used in Table 5 to denote standards for evaluating IC50 of Syk-inhibitory activity. • A: Up to 10 nM • B: 10 to 50 nM • C: 50 to 100 nM

Q: `CCOc1ncc(Nc2nc(N[C@H](C3CCC3)[C@H](C)N)c(F)cc2C(N)=O)cc1-n1ccnn1` [Example 2-167, 6-(((1R,2S)-2-amino-1-cyclobutylpropyl)amino)-2-((6-ethoxy-5-(1H-1,2,3-triazol-1-yl)pyridin-3-yl)amino)-5-fluoronicotinamide] was tested. Which IC50 did it give?
A: Its IC50 is 10 to 50 nM.

Q: `CCOc1ncc(Nc2nc(N[C@H](C3CCC3)[C@H](C)N)c(F)cc2C(N)=O)cc1-n1cccn1` [Example 2-168, 6-(((1R,2S)-2-amino-1-cyclobutylpropyl)amino)-2-((6-ethoxy-5-(1H-pyrazol-1-yl)pyridin-3-yl)amino)-5-fluoronicotinamide] was tested. Which IC50 did it give?
A: The IC50 was 10 to 50 nM.

Q: With `C[C@H](N)[C@H](Nc1nc(Nc2ccc3c(c2)c(OC(F)F)nn3C)c(C(N)=O)cc1F)C1CC1` [Example 2-171, 6-(((1R,2S)-2-amino-1-cyclopropylpropyl)amino)-2-((3-(difluoromethoxy)-1-methyl-1H-indazol-5-yl)amino)-5-fluoronicotinamide] as the molecule, how does the IC50 read?
A: The IC50 was less than 10 nM.

Q: Which IC50 does the source give for `CC[C@@H](Nc1nc(Nc2ccc3c(c2)c(OC(F)F)nn3CCOC)c(C(N)=O)cc1F)[C@H](C)N` [Example 2-175, 6-(((2S,3R)-2-aminopentan-3-yl)amino)-2-((3-(difluoromethoxy)-1-(2-methoxyethyl)-1H-indazol-5-yl)amino)-5-fluoronicotinamide] here?
A: The IC50 was less than 10 nM.

Q: `COCCn1nc(OC(F)F)c2cc(Nc3nc(N[C@H](C4CC4)[C@H](C)N)c(F)cc3C(N)=O)ccc21` [Example 2-176, 6-(((1R,2S)-2-amino-1-cyclopropylpropyl)amino)-2-((3-(difluoromethoxy)-1-(2-methoxyethyl)-1H-indazol-5-yl)amino)-5-fluoronicotinamide] was tested. Which IC50 did it give?
A: The IC50 was less than 10 nM.

Q: For `COCCn1nc(OC(F)F)c2cc(Nc3nc(N[C@H](CC(C)C)[C@H](C)N)c(F)cc3C(N)=O)ccc21` [Example 2-177, 6-(((2S,3R)-2-amino-5-methylhexan-3-yl)amino)-2-((3-(difluoromethoxy)-1-(2-methoxyethyl)-1H-indazol-5-yl)amino)-5-fluoronicotinamide], which IC50 is on record?
A: The IC50 was less than 10 nM.

Q: How did the IC50 turn out when `CCOC[C@@H](Nc1nc(Nc2cnc(C)c(-n3nccn3)c2)c(C(N)=O)cc1F)[C@H](C)N` [Example 2-183, 6-(((2S,3S)-3-amino-1-ethoxybutan-2-yl)amino)-5-fluoro-2-((6-methyl-5-(2H-1,2,3-triazol-2-yl)pyridin-3-yl)amino)nicotinamide] was run?
A: The IC50 was 50 to 100 nM.

Q: Which IC50 does the source give for `CCCC[C@@H](Nc1nc(Nc2cc(F)c3c(c2)c(N(C)C)nn3C)c(C(N)=O)cc1F)[C@H](C)N` [Example 2-189, 6-(((2S,3R)-2-aminoheptan-3-yl)amino)-2-((3-(dimethylamino)-7-fluoro-1-methyl-1H-indazol-5-yl)amino)-5-fluoronicotinamide] here?
A: Its IC50 is less than 10 nM.

Q: How did the IC50 turn out when `CC(C)C[C@@H](Nc1nc(Nc2cc(F)c3c(c2)c(N(C)C)nn3C)c(C(N)=O)cc1F)[C@H](C)N` [Example 2-190, 6-(((2S,3R)-2-amino-5-methylhexan-3-yl)amino)-2-((3-(dimethylamino)-7-fluoro-1-methyl-1H-indazol-5-yl)amino)-5-fluoronicotinamide] was run?
A: Its IC50 is less than 10 nM.

Q: Which IC50 does the source give for `C[C@H](N)[C@@H](CC1CC1)Nc1nc(Nc2cc(F)c3c(c2)c(N(C)C)nn3C)c(C(N)=O)cc1F` [Example 2-191, 6-(((2R,3S)-3-amino-1-cyclopropylbutan-2-yl)amino)-2-((3-(dimethylamino)-7-fluoro-1-methyl-1H-indazol-5-yl)amino)-5-fluoronicotinamide] here?
A: Its IC50 is 10 to 50 nM.

Q: For `CC[C@H](N)[C@@H](CC)Nc1nc(Nc2cc(F)c3c(c2)c(N(C)C)nn3C)c(C(N)=O)cc1F` [Example 2-195, 6-(((3R,4S)-4-aminohexan-3-yl)amino)-2-((3-(dimethylamino)-7-fluoro-1-methyl-1H-indazol-5-yl)amino)-5-fluoronicotinamide], which IC50 is on record?
A: Its IC50 is 10 to 50 nM.

Q: How did the IC50 turn out when `CCOc1ncc(Nc2nc(N[C@H](CC(C)C)[C@H](C)N)c(F)cc2C(N)=O)cc1-n1ccnn1` [Example 2-199, 6-(((2S,3R)-2-amino-5-methylhexan-3-yl)amino)-2-((6-ethoxy-5-(1H-1,2,3-triazol-1-yl)pyridin-3-yl)amino)-5-fluoronicotinamide] was run?
A: Its IC50 is less than 10 nM.

Q: Which IC50 does the source give for `CCOc1ncc(Nc2nc(N[C@H](CC)[C@H](C)N)c(F)cc2C(N)=O)cc1-n1cccn1` [Example 2-200, 6-(((2S,3R)-2-aminopentan-3-yl)amino)-2-((6-ethoxy-5-(1H-pyrazol-1-yl)pyridin-3-yl)amino)-5-fluoronicotinamide] here?
A: Its IC50 is 10 to 50 nM.

Q: With `CCC[C@@H](Nc1nc(Nc2cnc(OCC)c(-n3cccn3)c2)c(C(N)=O)cc1F)[C@H](C)N` [Example 2-201, 6-(((2S,3R)-2-aminohexan-3-yl)amino)-2-((6-ethoxy-5-(1H-pyrazol-1-yl)pyridin-3-yl)amino)-5-fluoronicotinamide] as the molecule, how does the IC50 read?
A: Its IC50 is 10 to 50 nM.

Q: `CC[C@@H](Nc1nc(Nc2cnc(OCCOC)c(-n3nccn3)c2)c(C(N)=O)cc1F)[C@H](C)N` [Example 2-202, 6-(((2S,3R)-2-aminopentan-3-yl)amino)-5-fluoro-2-((6-(2-methoxyethoxy)-5-(2H-1,2,3-triazol-2-yl)pyridin-3-yl)amino)nicotinamide] was tested. Which IC50 did it give?
A: Its IC50 is 50 to 100 nM.

Q: `CCC[C@@H](Nc1nc(Nc2cnc(OCCOC)c(-n3nccn3)c2)c(C(N)=O)cc1F)[C@H](C)N` [Example 2-203, 6-(((2S,3R)-2-aminohexan-3-yl)amino)-5-fluoro-2-((6-(2-methoxyethoxy)-5-(2H-1,2,3-triazol-2-yl)pyridin-3-yl)amino)nicotinamide] was tested. Which IC50 did it give?
A: Its IC50 is 10 to 50 nM.

Q: How did the IC50 turn out when `CC[C@@H](Nc1nc(Nc2cnc(OC)c(-n3ccnn3)c2)c(C(N)=O)cc1F)[C@H](C)N` [Example 2-204, 6-(((2S,3R)-2-aminopentan-3-yl)amino)-5-fluoro-2-((6-methoxy-5-(1H-1,2,3-triazol-1-yl)pyridin-3-yl)amino)nicotinamide] was run?
A: The IC50 was 10 to 50 nM.

Q: With `CCOc1ncc(Nc2nc(N[C@H](CC)[C@H](C)N)c(F)cc2C(N)=O)cc1-n1ccnn1` [Example 2-206, 6-(((2S,3R)-2-aminopentan-3-yl)amino)-2-((6-ethoxy-5-(1H-1,2,3-triazol-1-yl)pyridin-3-yl)amino)-5-fluoronicotinamide] as the molecule, how does the IC50 read?
A: The IC50 was 10 to 50 nM.

Q: How did the IC50 turn out when `CN(C)c1nn(C)c2ccc(Nc3nc(N[C@@H]4CCOC[C@@H]4N)c(F)cc3C(N)=O)cc12` [Example 2-212, 6-(((3R,4R)-3-aminotetrahydro-2H-pyran-4-yl)amino)-2-((3-(dimethylamino)-1-methyl-1H-indazol-5-yl)amino)-5-fluoronicotinamide] was run?
A: The IC50 was less than 10 nM.

Q: Which IC50 does the source give for `Cc1ncc(Nc2nc(N[C@H](C)[C@@H](N)C3CC3)c(F)cc2C(N)=O)cc1-n1nccn1` [Example 2-226, 6-(((1S,2R)-1-amino-1-cyclopropylpropan-2-yl)amino)-5-fluoro-2-((6-methyl-5-(2H-1,2,3-triazol-2-yl)pyridin-3-yl)amino)nicotinamide] here?
A: Its IC50 is 50 to 100 nM.

Q: How did the IC50 turn out when `COCCOc1cc(Nc2nc(N[C@H](C)[C@@H](N)C3CC3)c(F)cc2C(N)=O)ccn1` [Example 2-228, 6-(((1S,2R)-1-amino-1-cyclopropylpropan-2-yl)amino)-5-fluoro-2-((2-(2-methoxyethoxy)pyridin-4-yl)amino)nicotinamide] was run?
A: Its IC50 is 50 to 100 nM.

Q: For `C[C@H](N)[C@H](Nc1nc(Nc2cc(N3CCOCC3)ncc2F)c(C(N)=O)cc1F)C1CC1` [Example 2-234, 6-(((1R,2S)-2-amino-1-cyclopropylpropyl)amino)-5-fluoro-2-((5-fluoro-2-morpholinopyridin-4-yl)amino)nicotinamide], which IC50 is on record?
A: Its IC50 is 50 to 100 nM.

Q: `CC(C)C[C@@H](Nc1nc(Nc2cnc(N3CCOCC3)c(F)c2)c(C(N)=O)cc1F)[C@H](C)N` [Example 2-237, 6-(((2S,3R)-2-amino-5-methylhexan-3-yl)amino)-5-fluoro-2-((5-fluoro-6-morpholinopyridin-3-yl)amino)nicotinamide] was tested. Which IC50 did it give?
A: Its IC50 is 10 to 50 nM.

Q: How did the IC50 turn out when `CC[C@@H](Nc1nc(Nc2cnc3c(c2)c(C)nn3C)c(C(N)=O)cc1F)[C@H](C)N` [Example 2-241, 6-(((2S,3R)-2-aminopentan-3-yl)amino)-2-((1,3-dimethyl-1H-pyrazolo[3,4-b]pyridin-5-yl)amino)-5-fluoronicotinamide] was run?
A: Its IC50 is 10 to 50 nM.

Q: With `CCCC[C@@H](Nc1nc(Nc2cnc3c(c2)c(C)nn3C)c(C(N)=O)cc1F)[C@H](C)N` [Example 2-244, 6-(((2S,3R)-2-aminoheptan-3-yl)amino)-2-((1,3-dimethyl-1H-pyrazolo[3,4-b]pyridin-5-yl)amino)-5-fluoronicotinamide] as the molecule, how does the IC50 read?
A: Its IC50 is 10 to 50 nM.

Q: How did the IC50 turn out when `Cc1nn(C)c2ncc(Nc3nc(N[C@H](CC(C)C)[C@H](C)N)c(F)cc3C(N)=O)cc12` [Example 2-245, 6-(((2S,3R)-2-amino-5-methylhexan-3-yl)amino)-2-((1,3-dimethyl-1H-pyrazolo[3,4-b]pyridin-5-yl)amino)-5-fluoronicotinamide] was run?
A: Its IC50 is less than 10 nM.

Q: For `CC[C@H](N)[C@@H](CC)Nc1nc(Nc2cnc3c(c2)c(C)nn3C)c(C(N)=O)cc1F` [Example 2-248, 6-(((3R,4S)-4-aminohexan-3-yl)amino)-2-((1,3-dimethyl-1H-pyrazolo[3,4-b]pyridin-5-yl)amino)-5-fluoronicotinamide], which IC50 is on record?
A: Its IC50 is 50 to 100 nM.
